Laboratory results published in PMC9050769 (European Journal of Drug Metabolism and Pharmacokinetics, 2022).
Like-named read-outs stand apart in the source and are kept apart here.

Columns and labels:
[1] = Observed tramadol and ODT blood concentrations; type: in vivo, human
[2] = more potent than tramadol; cited from earlier work
mu (µ) opioid receptor = details: higher than that of tramadol; cited from earlier work
[3] = cited from earlier work
[4] = before inclusion of CrCL covariate (base model)
[5] = final model (with CrCL covariate)

For `CN(C)C[C@H]1CCCC[C@]1(O)c1cccc(O)c1` [O-desmethyltramadol], the ODT concentration ([1]; patients received 100 mg of tramadol) is listed as “around 100 µg/l”, the “ODT/tramadol concentration ratio at steady state, range” value ([1]; trough samples, n = 17) is listed as 0.08–0.82 and the “potency relative to tramadol” value [2] is listed as 100 times. For the same compound, the “binding affinity to the mu (µ) opioid receptor relative to tramadol” value (mu (µ) opioid receptor) was 300 fold, the “BSV in CLm” value (final model) was 21.6% and the “CLm/F, clearance of O-desmethyltramadol” value (final model) was 0.143 L/h.
In the case of `CNC(C)C1CCC(N)C(OC2C(N)CC(N)C(OC3OCC(C)(O)C(NC)C3O)C2O)O1` (stereo not drawn) [gentamicin], the “clearance in frail older patients compared to fit older patients” value [3] is given as “reduced”.
For `COc1cccc(C2(O)CCCCC2CN(C)C)c1` (stereo not drawn) [tramadol], the “BSV in CL/F” value [4] was 78.9%, the “BSV in V2/F” value [4] was 148% and the “BSV in Q” value (before inclusion of ISAR covariate (base model)) was 4.71%. For the same compound, the “BSV in V1/F” value (final model) was 73.8%, the BSV in kt (final model) was 78.5% and the “Q, inter-compartmental clearance” value (final model) was 0.0426 L/h. The “V2/F, apparent volume of distribution in peripheral compartment” value (final model) was 0.379 L, the “between-subject variability (BSV) in absorption rate constant” value (final model) was 37.8% and the “BSV in CL/F” value [5] was 6.61%. The “BSV in V2/F” value [5] was 97.4% and the “BSV in Q” value (final model (with ISAR covariate)) was 2.19%.
